Patent US20120225909A1, “INDAZOLE ANALOG” (priority 2009, published 2012)

Legend:
Type in all cases: cell-based
[1] = target: T1, human β3-adrenergic receptor (Homo sapiens, UniProt P13945); test: Test Case 1-B: human β3-adrenergic receptor agonist activity (cAMP-Screen, 96-well); conditions: for Emax: 0.5 h, read-out: β3 receptor I.A.; for EC50 / β3 receptor I.A.: Test Case 1-B; for EC50: CHO cells, cAMP; for β3 receptor I.A.: maximum response of isoproterenol = 100%
T1 construct: A full-length human β3 gene is obtained from a human genomic library (made by Clontech) using this as the probe; expressed in transfected cells; host or cells: CHO (Chinese hamster ovary) cells, pcDNA3
T1 sequence (P13945 whole entry): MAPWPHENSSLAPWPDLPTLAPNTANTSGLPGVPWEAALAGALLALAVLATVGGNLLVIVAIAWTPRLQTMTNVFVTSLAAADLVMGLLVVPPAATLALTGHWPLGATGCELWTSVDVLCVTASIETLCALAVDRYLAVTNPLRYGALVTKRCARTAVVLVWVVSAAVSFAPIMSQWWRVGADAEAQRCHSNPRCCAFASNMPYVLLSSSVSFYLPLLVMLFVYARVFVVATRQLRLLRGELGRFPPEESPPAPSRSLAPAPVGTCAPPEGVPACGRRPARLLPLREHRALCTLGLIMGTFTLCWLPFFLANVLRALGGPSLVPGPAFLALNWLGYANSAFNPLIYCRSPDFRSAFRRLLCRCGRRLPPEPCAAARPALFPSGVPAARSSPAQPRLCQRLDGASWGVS
Experimental: Measurement of Human β3-Adrenergic Receptor Agonist Activity
The human β3-adrenergic receptor agonist activity is measured using CHO (Chinese hamster ovary) cells transfected by a human β3 gene inserted in pcDNA3 (Invitrogen). […] A full-length human β3 gene is obtained from a human genomic library (made by Clontech) using this as the probe. These cells are cultured in Ham's F-12 medium containing 10% fetal calf serum and 400 μg/mL genectin (Invitrogen). These cells are sown in 96-well plates to make 2×10^4 cells/well. After culturing for approximately 20 hours, they are allowed to stand for 15 minutes in 80 μL of serum-free Ham's F-12 medium. After first dissolving the test compound by DMSO, it is serially diluted by Ham's F-12 containing 100 mmol/L HEPES and 1 mmol/L isobutylmethylxanthine, and 20 μL is added to the cells. After culturing for 30 minutes, the medium is removed, and 0.1 mL of the assay/lysis buffer contained in the cAMP-Screen kit (made by Applied Bioscience) is added and incubated for 30 minutes at 37° C. The cAMP in this cell lysate is assayed by the above cAMP-Screen kit.

[2] = target: T2, human β1-adrenergic receptor (Homo sapiens, UniProt P08588); test: Test Case 2-B: human β1-adrenergic receptor agonist activity; conditions: for Emax: read-out: β1 receptor I.A.; for β1 receptor I.A.: Test Case 2-B, maximum response of isoproterenol = 100%
T2 construct: expressed in transfected cells; host or cells: CHO (Chinese hamster ovary) cells, pcDNA3
T2 sequence (P08588 whole entry): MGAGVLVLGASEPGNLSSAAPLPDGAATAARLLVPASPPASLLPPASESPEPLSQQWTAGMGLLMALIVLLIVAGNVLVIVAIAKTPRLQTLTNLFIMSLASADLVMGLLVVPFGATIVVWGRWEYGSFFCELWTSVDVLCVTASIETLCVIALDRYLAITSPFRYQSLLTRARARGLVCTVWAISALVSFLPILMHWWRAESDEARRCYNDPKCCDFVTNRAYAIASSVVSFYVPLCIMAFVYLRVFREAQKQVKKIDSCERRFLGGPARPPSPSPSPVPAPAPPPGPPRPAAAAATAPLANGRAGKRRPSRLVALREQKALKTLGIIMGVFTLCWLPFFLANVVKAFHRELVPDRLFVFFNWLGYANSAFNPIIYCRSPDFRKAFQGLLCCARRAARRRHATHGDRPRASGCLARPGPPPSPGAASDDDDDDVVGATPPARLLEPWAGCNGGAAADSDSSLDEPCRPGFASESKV
Experimental: Measurement of Human β1-Adrenergic Receptor Agonist Activity
The human β1-adrenergic receptor agonist activity is measured by the same method as in Test Case 1-B using CHO (Chinese hamster ovary) cells transfected by a human β1 gene inserted in pcDNA3 (Invitrogen).

[3] = target: T3, human β2-adrenergic receptor (Homo sapiens, UniProt P07550); test: Test Case 3-B: human β2-adrenergic receptor agonist activity; conditions: for Emax: read-out: β2 receptor I.A.; for β2 receptor I.A.: Test Case 3-B, maximum response of isoproterenol = 100%
T3 construct: expressed in transfected cells; host or cells: CHO (Chinese hamster ovary) cells, pcDNA3
T3 sequence (P07550 whole entry): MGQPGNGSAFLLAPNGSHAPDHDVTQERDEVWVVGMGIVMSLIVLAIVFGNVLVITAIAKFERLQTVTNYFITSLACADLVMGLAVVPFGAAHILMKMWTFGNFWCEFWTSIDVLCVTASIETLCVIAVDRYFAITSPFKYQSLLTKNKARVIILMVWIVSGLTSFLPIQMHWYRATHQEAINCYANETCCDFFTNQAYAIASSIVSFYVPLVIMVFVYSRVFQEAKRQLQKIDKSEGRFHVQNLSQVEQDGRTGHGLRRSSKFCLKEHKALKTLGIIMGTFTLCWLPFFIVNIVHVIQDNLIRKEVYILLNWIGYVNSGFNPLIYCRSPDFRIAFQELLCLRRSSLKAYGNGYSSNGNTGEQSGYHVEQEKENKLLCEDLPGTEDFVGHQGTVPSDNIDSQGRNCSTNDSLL
Experimental: Measurement of Human β2-Adrenergic Receptor Agonist Activity
The human β2-adrenergic receptor agonist activity is measured by the same method as in Test Case 1-B using CHO (Chinese hamster ovary) cells transfected by a human β2 gene inserted in pcDNA3 (Invitrogen).

[4] = target: T4, human α1A-adrenergic receptor (Homo sapiens, UniProt P35348); test: Test Case 4-A: human α1A-adrenergic receptor agonist activity (HEK293, Ca flux, Fura-2); parameters: expressed in transfected cells; host or cells: HEK293 cells, pcDNA3.1; conditions: for Emax: HEK293, read-out: α1A receptor I.A.; for α1A receptor I.A.: maximum response of norepinephrine = 100%
T4 sequence (P35348 1-466): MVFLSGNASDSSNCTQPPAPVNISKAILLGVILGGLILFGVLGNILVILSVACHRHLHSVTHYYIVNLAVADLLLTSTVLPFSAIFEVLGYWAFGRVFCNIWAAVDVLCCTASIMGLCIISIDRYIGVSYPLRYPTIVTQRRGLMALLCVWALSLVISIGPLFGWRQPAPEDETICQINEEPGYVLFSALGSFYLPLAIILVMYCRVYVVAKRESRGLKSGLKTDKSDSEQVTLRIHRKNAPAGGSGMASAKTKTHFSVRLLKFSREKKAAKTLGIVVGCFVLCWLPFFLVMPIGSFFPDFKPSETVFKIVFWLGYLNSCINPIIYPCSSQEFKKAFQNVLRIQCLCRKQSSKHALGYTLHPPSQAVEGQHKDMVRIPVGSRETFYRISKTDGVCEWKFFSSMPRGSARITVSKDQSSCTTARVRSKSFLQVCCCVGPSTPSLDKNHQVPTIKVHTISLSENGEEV
Experimental: Measurement of Human α1A-Adrenergic Receptor Agonist Activity
The human α1A-adrenergic receptor agonist activity is measured using HEK293 cells transfected by a human α1A gene inserted in pcDNA3.1 (Invitrogen). […] After loading for 30 minutes in a CO2 incubator, the excess Fura-2AM is removed by washing twice with assay buffer. After preparing the centrifuged cells to make 5×10^6 cells/mL by assay buffer, 80 μL/well is dispensed into 96-well UV plates (made by Corning) to make cell plates. Sample plates with the test compound diluted 10-fold by assay buffer from 10^−5 to 10^−12 M and cell plates are set in an FDSS4000 (made by Hamamatsu Photonics). After preincubating for 180 seconds, measurement of fluorescence intensity (excitation wavelength 340 nm, 380 nm, measurement wavelength 500 nm) is begun at 2-second intervals. After approximately 30 seconds of measurement, 20 μL of test sample from a sample plate is added to the cell plate, and measurement is continued for another 270 seconds. The Ca flux caused by the test compound is calculated taking the difference in the maximum value of the fluorescence intensity ratio at 340 nm and 380 nm after adding the test compound and the fluorescence intensity ratio before adding the test compound as the peak height.

| SMILES | Emax [1] | EC50 [1] | Emax [2] | Emax [3] | Emax [4] | β3 receptor I.A. [1] | β1 receptor I.A. [2] | β2 receptor I.A. [3] | EC50 ([4]; Test Case 4-A, HEK293 cells, Ca flux, Table 4) | α1A receptor I.A. ([4]; Test Case 4-A, Table 4) |
| --- | --- | --- | --- | --- | --- | --- | --- | --- | --- | --- |
| CCc1n[nH]c2cc(OCCNC[C@H](O)c3cccc(NS(=O)(=O)c4cccc(N)c4)c3)ccc12 [ex118, (R)-3-amino-N-(3-(2-(2-(3-ethylindazol-6-yloxy)-ethylamino)-1-hydroxyethyl)-phenyl) benzenesulfonamide] | 77% | 0.25 nM | 13% | -1% | 0% |  |  |  |  |  |
| COc1n[nH]c2cc(OCCNC[C@H](O)c3cccc(NS(=O)(=O)C4CC4)c3)ccc12 [ex47, (R)-N-(3-(1-hydroxy-2-(2-(3-methoxyindazol-6-yloxy)-ethylamino)ethyl)phenyl)cyclo-propanesulfonamide] |  | 41 nM |  |  |  | 72% | 3% | 16% | 1220 nM | 28% |
| Cc1n[nH]c2cc(OCCNC[C@H](O)c3cccc(NS(=O)(=O)c4ccccc4N)c3)ccc12 [ex53, (R)-2-amino-N-(3-(1-hydroxy-2-(2-(3-methylindazol-6-yloxy)ethylamino)ethyl)phenyl) benzenesulfonamide] | 98% | 4.1 nM | 14% | 2% | 0% |  |  |  |  |  |
| Nc1cccc(S(=O)(=O)Nc2cccc([C@@H](O)CNCCOc3ccc4c(OC(F)F)n[nH]c4c3)c2)c1 [ex104] | 116% | 0.42 nM | 8% | 4% | 0% |  |  |  |  |  |
| Nc1cccc(S(=O)(=O)Nc2cccc([C@@H](O)CNCCOc3ccc4c(Cl)n[nH]c4c3)c2)c1 [ex153, (R)- ? -amino-N-(3-(2-(2-(3-chloroindazol-6-yloxy)-ethylamino)-1-hydroxyethyl)-phenyl) benzenesulfonamide] | 95% | 0.22 nM | 12% | 13% | 0% |  |  |  |  |  |
| Cc1cccc(S(=O)(=O)Nc2cccc([C@@H](O)CNCCOc3ccc4c(C)n[nH]c4c3)c2)c1 [ex49, (R)-N-(3-(1-hydroxy-2-(2-(3-methylindazol-6-yloxy)ethylamino)ethyl)phenyl)-3-methyl] | 96% | 2.5 nM | 10% | -3% | 0% |  |  |  |  |  |
| COc1n[nH]c2cc(OCCNC[C@H](O)c3cccc(NS(=O)(=O)C4CC4)c3)ccc12 [ex17, (R)-N-( ? -(1-hydroxy-2-(2-(3-methoxyindazol-6-yloxy)ethylamino)ethyl)phenyl)cy ?] | 70% | 39 nM | 1% | 12% | 13% |  |  |  |  |  |
| COc1n[nH]c2cc(OCCNC[C@H](O)c3cccc(NS(=O)(=O)c4cccc(N)c4)c3)ccc12 [ex1, (R)-3-amino-N-(3-(1-hydroxy-2-(2-(3-methoxyindazol-6-yloxy)ethylamino)ethyl)phenyl)benzenesulfonamide] | 110% | 0.52 nM | 6% | 1% | 0% |  |  |  |  |  |
| COc1n[nH]c2cc(OCCNC[C@H](O)c3cccc(NS(=O)(=O)c4cccc(Cl)c4)c3)ccc12 [ex42, (R)-3-chloro-N-(3-(1-hydroxy-2-(2-(3-methoxyindazol-6-yloxy)ethylamino)ethyl)phenyl) benzenesulfonamide] |  | 3.8 nM |  |  |  | 83% | 4% | 0% |  | 0% |
| CC(C)c1n[nH]c2cc(OCCNC[C@H](O)c3cccc(NS(=O)(=O)c4cccc(N)c4)c3)ccc12 [ex231, (R)-3-amino-N-(3-(1-hydroxy- ? -(2-( ? iso-propylindazol- ? - yloxy)ethylamino)ethyl)phenyl) benzene ? fonamide] | 124% | 0.2 nM | 18% | 3% | 0% |  |  |  |  |  |
